For this test, the system named is sAPPβ release in SH-SY5Y cells. Put plainly: sAPPβ Release Assay. Format: cell-based. The conditions noted are these: Homo sapiens, 17 h. The procedure: Thaw cells and seed at a conc. of around 10000 cells/well in DMEM/F-12 with Glutamax, 10% FCS and 1% non-essential amino acids to a 384-well tissue culture treated plate, […] cell susp/well. The cell plates were then incubated for 7-24 h at 37° C., 5% CO2. The cell medium was removed, followed by addition of 30 μL compound diluted in DMEM/F-12 with Glutamax, 10% FCS, 1% non-essential amino acids and 1% PeSt to a final conc. of 1% DMSO. […] Meso Scale Discovery (MSD) plates were used for the detection of sAPPβ release. MSD sAPPβ plates were blocked in 1% BSA in Tris wash buffer (40 μL/well) for 1 h on shake at r.t. and washed 1 time in Tris wash buffer (40 μL/well). 20 μL of medium was transferred to the pre-blocked and washed MSD sAPPβ microplates, and the cell plates were further used in an ATP assay to measure cytotoxicity. The MSD plates were incubated with shaking at r.t. for 2 h and the media discarded. 10 μL detection antibody was added (1 nM) per well followed by incubation with shaking at r.t. for 2 h and then discarded. 40 μL Read Buffer was added per well and the plates were read in a SECTOR Imager.

As for `CC#Cc1cncc(-c2ccc3c(c2)[C@@]2(N=C(C)C(N)=N2)[C@]2(CC[C@H](OC)CC2)C3)c1` [(1r,1′R,4R)-4-methoxy-5″-methyl-6′-[5-(prop-1-yn-1-yl)pyridin-3-yl]-3′H-dispiro[cyclohexane-1,2′-indene-1′2″-imidazol]-4″-amine], inhibition was half-maximal at 100 pM (IC50).

Source of the values: patent publication US20190262327A1, “COMBINATION OF A BACE INHIBITOR AND AN ANTIBODY OR ANTIGEN-BINDING FRAGMENT FOR THE TREATMENT OF A DISORDER ASSOCIATED WITH THE ACCUMULATION OF AMYLOID BETA” (ASTRAZENECA AB, priority 2016, published 2019).
